Reference: the supplement of paper PMC10307832

Assays:
Experiment in all cases: relative viability (nuclei count vs DMSO), 5 days (fraction); higher = more cells survive
Olaparib + Foretinib = compound: O=C(c1cc(Cc2n[nH]c(=O)c3ccccc23)ccc1F)N1CCN(C(=O)C2CC2)CC1 [Olaparib] + COc1cc2c(Oc3ccc(NC(=O)C4(C(=O)Nc5ccc(F)cc5)CC4)cc3F)ccnc2cc1OCCCN1CCOCC1 [Foretinib] (partner 0.25 µM)
Summary of the method: (§1)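 Nuclei were stained with Hoechst during a one-step fixation (final 0.05% Triton X-100, 1% formaldehyde, 1 ug/ml Hoechst) carried out 5 days after dosing, then counted on 4× images. The cells, lung cancer lines in 1536-well plates, had been dosed by pin tool the day after seeding with one drug alone or a fixed anchor-drug dose plus five library-drug doses (not always all listed) in √10 steps. Relative viability is the nuclei count in treated wells divided by that in vehicle wells, and each value is the median of duplicate plates.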

Crizotinib + Luminespib = compound: C[C@@H](Oc1cc(-c2cnn(C3CCNCC3)c2)cnc1N)c1c(Cl)ccc(F)c1Cl [Crizotinib] + CCNC(=O)c1noc(-c2cc(C(C)C)c(O)cc2O)c1-c1ccc(CN2CCOCC2)cc1 [Luminespib] (partner 0.01 µM)
Summary of the method: as §1

Carfilzomib + Pemetrexed = compound: CC(C)C[C@H](NC(=O)[C@H](CCc1ccccc1)NC(=O)CN1CCOCC1)C(=O)N[C@@H](Cc1ccccc1)C(=O)N[C@@H](CC(C)C)C(=O)[C@@]1(C)CO1 [Carfilzomib] + Nc1nc2[nH]cc(CCc3ccc(C(=O)N[C@@H](CCC(=O)O)C(=O)O)cc3)c2c(=O)[nH]1 [Pemetrexed] (partner 0.2 µM)
Summary of the method: as §1

Carfilzomib + Pictilisib = compound: CC(C)C[C@H](NC(=O)[C@H](CCc1ccccc1)NC(=O)CN1CCOCC1)C(=O)N[C@@H](Cc1ccccc1)C(=O)N[C@@H](CC(C)C)C(=O)[C@@]1(C)CO1 [Carfilzomib] + CS(=O)(=O)N1CCN(Cc2cc3nc(-c4cccc5[nH]ncc45)nc(N4CCOCC4)c3s2)CC1 [Pictilisib] (partner 1 µM)
Summary of the method: as §1

Row | Cell Line | relative viability (Olaparib + Foretinib; first compound 0.08 µM) | relative viability (Olaparib + Foretinib; first compound 0.253 µM) | relative viability (Olaparib + Foretinib; first compound 2.53 µM) | relative viability (Olaparib + Foretinib; first compound 8 µM) | relative viability (Crizotinib + Luminespib; first compound 0.01 µM) | relative viability (Crizotinib + Luminespib; first compound 0.03162 µM) | relative viability (Crizotinib + Luminespib; first compound 0.1 µM) | relative viability (Crizotinib + Luminespib; first compound 0.3162 µM) | relative viability (Crizotinib + Luminespib; first compound 1 µM) | relative viability (Carfilzomib + Pemetrexed; first compound 0.001 µM) | relative viability (Carfilzomib + Pemetrexed; first compound 0.003162 µM) | relative viability (Carfilzomib + Pemetrexed; first compound 0.01 µM) | relative viability (Carfilzomib + Pemetrexed; first compound 0.03162 µM) | relative viability (Carfilzomib + Pemetrexed; first compound 0.1 µM) | relative viability (Carfilzomib + Pictilisib; first compound 0.001 µM) | relative viability (Carfilzomib + Pictilisib; first compound 0.003162 µM) | relative viability (Carfilzomib + Pictilisib; first compound 0.01 µM) | relative viability (Carfilzomib + Pictilisib; first compound 0.03162 µM) | relative viability (Carfilzomib + Pictilisib; first compound 0.1 µM)
1 | LOU-NH91 | 0.943 | 0.957 | 0.998 | 0.939 | 0.351 | 0.311 | 0.346 | 0.34 | 0.345 | 0.368 | 0.451 | 0.471 | 0.314 | 0.335 | 0.51 | 0.525 | 0.477 | 0.312 | 0.255
2 | NCI-H1755 | 0.922 | 0.898 | 0.868 | 0.787 | 0.428 | 0.482 | 0.445 | 0.554 | 0.266 | 0.42 | 0.497 | 0.475 | 0.37 | 0.311 | 0.412 | 0.479 | 0.413 | 0.239 | 0.16
3 | NCI-H647 | 1.19 | 1.04 | 1.13 | 1.07 | 0.2 | 0.14 | 0.146 | 0.152 | 0.153 | 0.193 | 0.179 | 0.126 | 0.0407 | 0.0343 | – | 0.562 | 0.397 | 0.0769 | 0.036
4 | A549 | 0.996 | 0.774 | 0.872 | 0.548 | – | – | – | – | – | – | – | – | – | – | 0.525 | 0.472 | 0.44 | 0.118 | 0.0573
5 | LCLC-103H | 1.13 | 0.652 | 0.732 | 0.673 | 0.856 | 0.987 | 0.856 | – | 1.02 | 0.483 | 0.459 | 0.529 | 0.446 | 0.404 | 0.616 | 0.659 | 0.718 | 0.685 | 0.347
6 | NCI-H1437 | 1.3 | 1.12 | 1.08 | 0.914 | 1.06 | 1.15 | 1.14 | 1.17 | 1.22 | 0.282 | 0.352 | 0.334 | 0.273 | 0.286 | 0.313 | 0.463 | 0.41 | 0.322 | 0.0975
7 | NCI-H2170 | 1.01 | 0.98 | 0.994 | 0.948 | 0.914 | 0.806 | 0.649 | 0.606 | 0.511 | 0.262 | 0.277 | 0.254 | 0.24 | 0.183 | 0.317 | 0.349 | 0.327 | 0.283 | 0.163
8 | HCC-15 | 1.23 | 0.95 | 1.07 | 0.868 | 0.382 | 0.409 | 0.443 | – | 0.334 | 0.242 | 0.218 | 0.238 | 0.224 | 0.13 | 0.596 | 0.863 | 0.784 | 0.522 | 0.156
9 | NCI-H1648 | – | – | – | – | – | – | – | – | – | 0.717 | 0.671 | 0.805 | 0.416 | 0.263 | – | – | – | – | –
10 | NCI-H661 | 1.16 | 0.97 | 0.948 | 0.775 | 0.832 | 0.92 | 0.892 | – | 0.908 | 0.925 | 0.948 | 0.902 | 0.903 | 0.415 | 0.391 | 0.458 | 0.457 | 0.483 | 0.238
11 | NCI-H650 | 1.11 | 1.02 | 0.909 | 0.794 | 0.726 | 0.75 | – | 0.798 | 0.942 | 0.954 | 1.04 | 1.27 | 0.781 | 0.137 | 0.83 | 1.06 | 1.01 | 0.385 | 0.189
12 | RERF-LC-KJ | 0.922 | 0.797 | 1 | 0.919 | 1.22 | 1.31 | 1.29 | 1.21 | 1.21 | 0.444 | 0.51 | 0.489 | 0.368 | 0.248 | 0.528 | 0.469 | 0.675 | 0.265 | 0.149
13 | SK-LU-1 | 0.91 | 0.657 | 0.748 | 0.526 | 0.208 | 0.195 | 0.225 | 0.224 | 0.206 | 0.946 | 1.03 | 0.978 | 0.258 | 0.182 | 0.518 | 0.653 | 0.541 | 0.201 | 0.15
14 | NCI-H1792 | – | – | – | – | 0.46 | 0.39 | 0.529 | – | 0.553 | – | 0.937 | 0.773 | 0.49 | 0.0813 | 0.291 | 0.313 | 0.282 | 0.24 | 0.199
15 | NCI-H1666 | 0.936 | 0.867 | 0.793 | 0.823 | 0.864 | 1 | 1.09 | 0.991 | 0.999 | 0.896 | 0.914 | 0.898 | 0.799 | 0.562 | 0.536 | 0.676 | 0.586 | 0.422 | 0.228
